In the experiment the target is myeloperoxidase (MPO) (Homo sapiens, UniProt P05164). It is filed as biochemical.
myeloperoxidase (MPO), sequence (P05164 165-273): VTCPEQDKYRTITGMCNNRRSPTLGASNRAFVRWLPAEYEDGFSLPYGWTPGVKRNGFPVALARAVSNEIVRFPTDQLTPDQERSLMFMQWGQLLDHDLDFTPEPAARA
myeloperoxidase (MPO), sequence (P05164 279-745): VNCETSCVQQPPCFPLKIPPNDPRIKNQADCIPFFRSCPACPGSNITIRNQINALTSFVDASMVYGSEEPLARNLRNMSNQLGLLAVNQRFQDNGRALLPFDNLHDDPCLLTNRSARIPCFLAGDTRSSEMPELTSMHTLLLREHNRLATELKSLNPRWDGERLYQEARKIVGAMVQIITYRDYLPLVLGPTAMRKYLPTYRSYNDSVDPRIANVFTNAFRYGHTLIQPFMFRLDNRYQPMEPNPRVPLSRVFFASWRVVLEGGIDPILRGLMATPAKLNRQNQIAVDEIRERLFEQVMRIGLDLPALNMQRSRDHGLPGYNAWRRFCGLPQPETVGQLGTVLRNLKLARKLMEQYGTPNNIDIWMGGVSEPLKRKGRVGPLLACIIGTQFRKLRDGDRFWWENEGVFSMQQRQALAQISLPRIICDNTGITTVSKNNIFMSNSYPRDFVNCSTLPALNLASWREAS

For `COc1cc(CC(CO[C@@H]2O[C@H](CO)[C@@H](O)[C@H](O)[C@H]2O)C(CO[C@@H]2O[C@H](CO)[C@@H](O)[C@H](O)[C@H]2O)Cc2ccc(O)c(OC)c2)ccc1O` (stereo partly shown) [LGM2605], the IC50 amounted to 63.5 µM.

The values above are taken from paper PMC5970065 (Biochimica et biophysica acta, 2018).
